According to patent publication US9718781B2, “Methods and compounds for treating proliferative disorders and viral infections” (University College Dublin, National University of Ireland, …, priority 2012, dated 2017):
Like-named read-outs stand apart in the source and are kept apart here.

Columns and labels:
[1] = molecular target: T1, TPβ (Homo sapiens, UniProt P21731); assay: U46619-induced [Ca2+]i mobilization in HEK.TPβ cells; assay type: cell-based; conditions: for remaining activity at 1 µM / remaining activity at 10 µM: % of agonist-induced response in vehicle-treated cells; for remaining activity at 1 µM: read-out: Percentage of Control, TPβ, 1 μM; for remaining activity at 10 µM: antagonist 10 μM, read-out: Percentage of Control, TPβ, 10 μM
T1 construct: expressed in transfected cells
T1 sequence (P21731 1-407 isoform P21731-2): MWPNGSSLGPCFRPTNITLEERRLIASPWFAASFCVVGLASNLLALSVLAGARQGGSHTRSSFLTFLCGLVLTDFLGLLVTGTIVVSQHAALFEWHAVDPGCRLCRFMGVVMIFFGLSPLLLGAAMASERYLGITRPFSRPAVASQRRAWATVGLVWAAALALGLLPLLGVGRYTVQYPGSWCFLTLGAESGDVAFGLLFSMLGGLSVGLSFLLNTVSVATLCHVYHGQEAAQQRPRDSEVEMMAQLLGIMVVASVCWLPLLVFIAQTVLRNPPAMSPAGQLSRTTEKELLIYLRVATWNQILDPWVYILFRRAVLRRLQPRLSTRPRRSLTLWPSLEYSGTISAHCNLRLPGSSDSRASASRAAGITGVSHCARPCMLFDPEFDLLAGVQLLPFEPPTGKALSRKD
In short: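 Fluo-4-loaded (3 μM, 1 h, 25° C.) HEK293 TPβ cells in KREBs-HEPES pH 7.4, pre-incubated 10 min with test compound, then stimulated with 1 μM U46619. Fluorescence at 520 nm followed for 75 s, calibrated by Fmax (2% Triton X100) and Fmin (1 mM EGTA).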

[2] = tested on: platelets in whole blood; assay: U46619-mediated platelet aggregation in whole blood (Sysmex haematological analyzer); assay type: cell-based, human; conditions: antagonist 0.1 μM, 1 μM U46619
Protocol: From an efficacy point of view, this is an important assay and, physiologically, relevant with respect to the therapeutic target.
Initially, the Sysmex haematological analyzer was used to examine the effect of the TP antagonists at a single concentration (0.1 μM) on U46619 (1 μM)-mediated platelet aggregation in whole blood.
FIG. 3 illustrates effects of the TP antagonist compounds on U46619-mediated platelet aggregation. Blood was taken form healthy volunteer by venupuncture into syringes containing 3.8% sodium citrate, 10 μM Indomethacin, such that the ratio of anticoagulant:blood was 1:9. The blood was aliquoted and incubated for 10 min with TP20 and selected NTP compounds, as indicated, where the antagonist were used at 0.1 μM prior to stimulation with 1 μM U46619 for 3 min. The blood was fixed with formaldehyde and platelet numbers counted using the Sysmex haematological analyzer. Data is presented as the mean percentage of control or non-treated blood sample (Percentage of Control; %) and represent data from 3 independent experiments were samples were treated in duplicate.

[3] = molecular target: T2, TPα (Homo sapiens, UniProt P21731); assay: U46619-induced [Ca2+]i mobilization in HEK.TPα cells; assay type: cell-based; conditions: for remaining activity at 1 µM: antagonist 1 μM, read-out: Percentage of Control, TPα, 1 μM; for remaining activity at 1 µM / remaining activity at 10 µM: % of agonist-induced response in vehicle-treated cells; for remaining activity at 10 µM: antagonist 10 μM, read-out: Percentage of Control, TPα, 10 μM
T2 construct: expressed in transfected cells
T2 sequence (P21731 1-343): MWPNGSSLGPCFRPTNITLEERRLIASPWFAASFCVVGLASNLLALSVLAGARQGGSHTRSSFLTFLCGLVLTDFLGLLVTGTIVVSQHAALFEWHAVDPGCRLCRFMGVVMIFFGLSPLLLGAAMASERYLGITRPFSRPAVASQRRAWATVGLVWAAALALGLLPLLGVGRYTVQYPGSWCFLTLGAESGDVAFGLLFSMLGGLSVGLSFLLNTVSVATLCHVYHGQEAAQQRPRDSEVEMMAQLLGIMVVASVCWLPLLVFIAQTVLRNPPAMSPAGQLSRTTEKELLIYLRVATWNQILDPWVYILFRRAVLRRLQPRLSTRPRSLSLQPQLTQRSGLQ
In short: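 HEK293 cells loaded with 3 μM Fluo-4 (1 h, 25° C.) in Krebs-HEPES pH 7.4, then pre-incubated with compound for 10 min. Fluorescence at 520 nm tracked after injection of 1 μM U46619. Signal calibrated by Fmax (2% Triton X100) and Fmin (1 mM EGTA).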

[4] = Phase 1 safety/tolerability study, repeat oral dosing; conditions: 360 μg/kg oral gavage twice daily
From the text: Data is presented as mean body weight (±S.E.M.; FIG. 12A) or as mean percentage change in body weight (±S.E.M.; FIG. 12B) as a function of time.

[5] = tested on: human platelets; assay: ADP-induced platelet aggregation of human platelets ex vivo; assay type: cell-based
From the text: The method of assessing platelet aggregation also allows evaluation of the effect of the compounds of the invention on platelet aggregation upon stimulation by other agonists, e.g., adenosine diphosphate (ADP) and thrombin.

[6] = side-by-side comparison, n=6, Table 2.6, read-out: IC50 values for inhibition of U46619-mediated [Ca2+]i, TPβ
[7] = side-by-side comparison, n=5, Table 2.6, read-out: IC50 values for inhibition of U46619-mediated [Ca2+]i, TPα

With `COc1ccc(-c2cccc(Oc3ccc(C#N)cc3S(=O)(=O)NC(=O)NC(C)(C)C)c2)cc1` [NTP4, N-(tert-butylcarbamoyl)-5-cyano-2-((4′-methoxy-[1,1′-biphenyl]-3-yl)oxy)benzenesulfonamide] the “activity class in HEK.TPβ cells” value ([1]; antagonist 1 μM, 1 μM U46619) was “ACTIVE”, the remaining activity at 1 µM ([1]; antagonist 1 μM, 1 μM U46619) was 22.5 ± 3.7% and the remaining activity at 10 µM ([1]; 1 μM U46619) was 10.2 ± 0.95%. For the same molecule, the IC50 [1, 6] was 60.4 ± 8 nM, the “inhibition of U46619-mediated responses” value ([1]; used at 0.5, HEK.TPβ cells) was “greater than 50%” and the “inhibition of U46619-mediated reduction in platelet number” value [2] was “approx. 50%”. It also gave a remaining activity at 1 µM ([3]; 1 μM U46619) of 46.1 ± 3.87%, a remaining activity at 10 µM ([3]; 1 μM U46619) of 19.9 ± 2.13% and an IC50 [3, 7] of 593 ± 83.6 nM.

For `COc1ccc(-c2cccc(Oc3ccc([N+](=O)[O-])cc3S(=O)(=O)NC(=O)NC(C)(C)C)c2)cc1` [TP20, N-(tert-butylcarbamoyl)-2-((4′-methoxy-[1,1′-biphenyl]-3-yl)oxy)-5-nitrobenzene-sulfonamide], the tolerability [4] was “well tolerated with no safety issues/concerns”, the “survival on repeat dosing” value ([4]; 14 days monitoring) was “All mice survived” and the weight loss ([4]; at Day 7) was ~4%. The “reduction of U46619-mediated calcium mobilization responses” value ([1]; 1 & 10 μM, HEK.TPβ cells) was “approx. 90%”, the IC50 ([1]; HEK.TPβ cells, 1 μM U46619, Table 2, read-out: IC50 data for U46619-mediated [Ca2+]i mobilization, TPβ) was 7.33 nM and the remaining activity at 1 µM ([1]; antagonist 1 μM, 1 μM U46619) was 12.6 ± 1.46%. The remaining activity at 10 µM ([1]; 1 μM U46619) was 9.96 ± 1.7%, the IC50 [1, 6] was 9.61 ± 1.46 nM and the “effect on ADP-induced platelet aggregation” value [5] was “did not affect”. For the same molecule, the “inhibition of U46619-mediated reduction in platelet number” value [2] was “almost completely inhibited”, the IC50 ([3]; HEK.TPα cells, 1 μM U46619, Table 2, read-out: IC50 data for U46619-mediated [Ca2+]i mobilization, TPα) was 119 nM and the “TPα:TPβ Selectivity Ratio” value ([3]; IC50 TPα/IC50 TPβ) was 16.2. For the same molecule, the remaining activity at 1 µM ([3]; 1 μM U46619) was 45.4 ± 4.07%, the remaining activity at 10 µM ([3]; 1 μM U46619) was 17.1 ± 2.46% and the IC50 [3, 7] was 240 ± 29.8 nM.
